# Source: patent US20250197382A1, “KIF18A INHIBITOR” (WIGEN BIOMEDICINE TECHNOLOGY (SHANGHAI) CO., LTD., priority 2022, published 2025)
# pIC50: −log10 of the molar value.
# Tested on: HCT116 cells
# Experiment: In vitro anti-proliferative activity against HCT116 cells (intracellular ATP content, 72 h)
# Assay type: cell-based
# Settings: Homo sapiens, HCT-116, 72 h after dosing
# Procedure: Biological Example 3. In Vitro Anti-Proliferative Activity of Compounds of the Present Invention Against HCT116 Cells
# HCT116 cells were seeded on a 384-well plate at 3000 cells/well. After overnight adherence culture, DMSO or the compounds serially diluted in a 1:5 ratio from 5 μM were added. The viability was assessed 72 h after dosing by measuring the intracellular ATP content. The inhibition percentages of viable cells by the compounds were calculated by comparing with the DMSO group, and the IC50 values were also calculated.
row,pIC50,Structure (SMILES)
1,< 5.00,O=C(Nc1cc2c(c(N3CCC4(CC4)C3)c1)OCC2)c1ccc(NS(=O)(=O)CCO)cc1N1CCC2(CC1)CC2 [Compound 6]
2,< 5.00,O=C(Nc1cc2c(c(N3CCC4(CC4)C3)n1)OCC2)c1ccc(NS(=O)(=O)CCO)cc1N1CCC2(CC1)CC2 [Compound 70]
3,< 5.00,C[C@H]1CN(c2nc(NC(=O)c3ccc(NS(=O)(=O)CCO)cc3N3CCC4(CC3)CC4)cc3c2OCC3)CCO1 [Compound 67]
4,< 5.00,Cn1ccc2cc(NC(=O)c3ccc(NS(=O)(=O)CCO)cc3N3CCC4(CC3)CC4)cc(N3CCC(F)(F)CC3)c21 [Compound 385]

# Biological target: Recombinant human KIF18A (1-467His-tagged) protein (Homo sapiens (Human), UniProt Q8NI77)
# Sequence (Q8NI77 1-467): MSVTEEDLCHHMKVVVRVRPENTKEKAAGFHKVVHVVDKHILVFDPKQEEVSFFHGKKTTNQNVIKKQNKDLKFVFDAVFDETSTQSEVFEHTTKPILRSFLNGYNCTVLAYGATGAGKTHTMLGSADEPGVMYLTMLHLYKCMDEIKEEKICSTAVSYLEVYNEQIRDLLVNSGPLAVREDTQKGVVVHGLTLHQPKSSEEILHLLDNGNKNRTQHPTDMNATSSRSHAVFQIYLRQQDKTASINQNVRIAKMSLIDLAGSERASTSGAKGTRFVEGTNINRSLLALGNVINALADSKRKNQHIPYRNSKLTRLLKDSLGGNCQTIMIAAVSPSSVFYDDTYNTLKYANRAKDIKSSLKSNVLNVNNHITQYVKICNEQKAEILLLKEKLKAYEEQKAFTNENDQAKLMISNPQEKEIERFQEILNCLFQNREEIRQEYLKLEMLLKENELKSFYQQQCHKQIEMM
# Sequence (P02550 whole entry partner): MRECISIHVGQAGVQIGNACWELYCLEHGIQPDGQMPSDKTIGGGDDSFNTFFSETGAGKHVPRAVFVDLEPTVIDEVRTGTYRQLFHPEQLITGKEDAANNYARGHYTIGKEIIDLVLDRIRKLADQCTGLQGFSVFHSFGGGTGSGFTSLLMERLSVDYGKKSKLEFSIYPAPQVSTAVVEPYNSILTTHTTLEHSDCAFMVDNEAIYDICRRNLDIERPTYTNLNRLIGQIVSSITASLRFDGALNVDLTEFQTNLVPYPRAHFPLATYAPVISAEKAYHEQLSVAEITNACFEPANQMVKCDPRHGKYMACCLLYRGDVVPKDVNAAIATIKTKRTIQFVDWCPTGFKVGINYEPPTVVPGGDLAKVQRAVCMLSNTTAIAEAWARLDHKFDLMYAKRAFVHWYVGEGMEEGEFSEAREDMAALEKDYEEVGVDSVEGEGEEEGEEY
# Sequence (P02554 whole entry partner): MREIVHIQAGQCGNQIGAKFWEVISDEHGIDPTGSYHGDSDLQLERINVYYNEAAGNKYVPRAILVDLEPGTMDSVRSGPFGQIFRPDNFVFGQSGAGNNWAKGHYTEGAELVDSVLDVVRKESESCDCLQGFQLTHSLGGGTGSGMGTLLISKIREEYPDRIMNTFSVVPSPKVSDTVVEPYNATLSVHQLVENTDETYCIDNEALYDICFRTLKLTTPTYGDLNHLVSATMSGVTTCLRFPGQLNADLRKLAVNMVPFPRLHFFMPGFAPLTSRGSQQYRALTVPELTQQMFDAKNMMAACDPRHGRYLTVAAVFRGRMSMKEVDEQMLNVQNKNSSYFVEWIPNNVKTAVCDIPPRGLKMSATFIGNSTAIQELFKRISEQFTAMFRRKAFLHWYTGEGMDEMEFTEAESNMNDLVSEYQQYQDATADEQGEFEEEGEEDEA
# Experiment: KIF18A enzyme assay (microtubule-stimulated ATPase activity, ADP-Glo)
# Assay type: biochemical
# Settings: 30 nM KIF18A, ATP 75 μM, read-out: inhibitory activity against KIF18A IC50
# Outline: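 Baculovirus-expressed human KIF18A (1-467, His-tagged; 30 nM) preincubated 15 min at room temperature with compound (22-point 2-fold series) in pH 7.5 Tris buffer containing 30 μg/mL pig microtubules and 1 μM paclitaxel.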
row,Structure (SMILES),pIC50
1,Cn1ccc2cc(C(=O)Nc3ccc(S(=O)(=O)NCCO)cc3N3CCC4(CC3)CC4)nc(N3CCC(F)CC3)c21 [Compound 505],≥ 7.00
2,C[C@H](CO)NS(=O)(=O)c1ccc(C(=O)Nc2cc(N3CCC(F)(F)CC3)c3occc3c2)c(N2CCC3(CC2)CC3)c1 [Compound 158],≥ 7.00
3,C[C@@H]1CN(c2cc(C(=O)Nc3ccc(NS(=O)(=O)[C@H](C)CO)cc3N3CCC4(CC3)CC4)cc3c2OCC3)CCO1 [Compound 48],≥ 7.00
4,Cn1ccc2cc(NC(=O)c3ccc(S(=O)(=O)NCCO)cc3N3CCC4(CC3)CC4)cc(N3CCOCC3)c21 [Compound 412],≥ 7.00
5,O=C(Nc1ccc(S(=O)(=O)NCCO)cc1N1CCC2(CC1)CC2)c1cc2c(c(N3CC(F)(F)C3)n1)OCC2 [Compound 116],≥ 7.00
6,CN1CCc2cc(NC(=O)c3ccc(S(=O)(=O)NCCO)cc3N3CCC4(CC3)CC4)cc(N3CC4CC4C3)c21 (stereo not drawn) [Compound 282],≥ 7.00
7,C[C@@H](CO)S(=O)(=O)Nc1ccc(NC(=O)c2cc(N3CCC(F)(F)CC3)c3c(ccn3C)c2)c(N2CCC3(CC2)CC3)c1 [Compound 429],≥ 7.00
8,C[C@H](CO)S(=O)(=O)Nc1ccc(C(=O)Nc2cc3c(c(N4CCC(F)(F)CC4)c2)OCC3)c(N2CCC3(CC2)CC3)c1 [Compound 14],≥ 7.00
9,O=C(Nc1ccc(S(=O)(=O)NCCO)cc1N1CCC2(CC1)CC2)c1cc2c(c(N3CC4CC4C3)n1)OCC2 (stereo not drawn) [Compound 122],≥ 7.00
10,O=C(Nc1ccc(S(=O)(=O)NCCO)cc1N1CCC2(CC1)CC2)c1cc2c(c(OC3CCC3)c1)OCC2 [Compound 55],≥ 7.00
11,C[C@H](CO)NS(=O)(=O)c1ccc(NC(=O)c2cc3c(c(N4CCC(F)(F)CC4)c2)OCC3)c(N2CCC3(CC2)CC3)c1 [Compound 62],≥ 7.00
12,C[C@@H]1CN(c2nc(C(=O)Nc3ccc(S(=O)(=O)N[C@@H](C)CO)cc3N3CCC4(CC3)CC4)cc3c2OCC3)CCO1 [Compound 127],≥ 7.00
13,O=C(Nc1ccc(NS(=O)(=O)CCO)cc1N1CCC2(CC1)CC2)c1cc2c(c(N3CCC(F)(F)CC3)c1)OCCC2 [Compound 545],≥ 7.00
14,O=C(Nc1cc2c(c(N3CCC4(CC4)C3)n1)OCC2)c1ccc(S(=O)(=O)NCCO)cc1N1CCC2(CC1)CC2 [Compound 86],≥ 7.00
15,C[C@@H](CO)NS(=O)(=O)c1ccc(NC(=O)c2cc3c(c(N4CCC(F)(F)CC4)n2)OCC3)c(N2CCC3(CC2)CC3)c1 [Compound 125],≥ 7.00
16,O=C(Nc1cc2c(c(N3CC4CC4C3)c1)OCC2)c1ccc(S(=O)(=O)NCCO)cc1N1CCC2(CC1)CC2 (stereo not drawn) [Compound 26],≥ 7.00
17,CC1(F)CCN(c2nc(C(=O)Nc3ccc(NS(=O)(=O)CCO)cc3N3CCC4(CC3)CC4)cc3c2OCC3)C1 (stereo not drawn) [Compound 104],≥ 7.00
18,C[C@H](CO)NS(=O)(=O)c1ccc(NC(=O)c2cc3c(c(N4CCO[C@H](C)C4)n2)N(C)CC3)c(N2CCC3(CC2)CC3)c1 [Compound 384],≥ 7.00
19,CN1CCc2cc(C(=O)Nc3ccc(S(=O)(=O)NCCO)cc3N3CCC4(CC3)CC4)cc(N3CCC4(CC4)C3)c21 [Compound 310],≥ 7.00
20,Cn1ccc2cc(NC(=O)c3ccc(S(=O)(=O)NCCO)cc3N3CCC4(CC3)CC4)cc(N3CCC4(CC4)C3)c21 [Compound 406],≥ 7.00
21,Cn1ccc2cc(C(=O)Nc3ccc(S(=O)(=O)NCCO)cc3N3CCC4(CC3)CC4)cc(OC3CCC3)c21 [Compound 439],≥ 7.00
22,C[C@H](CO)S(=O)(=O)Nc1ccc(NC(=O)c2cc3c(c(N4CCC(F)(F)CC4)c2)N(C)CC3)c(N2CCC3(CC2)CC3)c1 [Compound 302],≥ 7.00
23,O=C(Nc1ccc(NS(=O)(=O)CCO)cc1N1CCC2(CC1)CC2)c1cc2c(c(N3CCC4(CC4)C3)c1)OCC2 [Compound 38],≥ 7.00
24,C[C@H](CO)S(=O)(=O)Nc1ccc(C(=O)Nc2cc3c(c(N4CCC(F)(F)CC4)n2)N(C)CC3)c(N2CCC3(CC2)CC3)c1 [Compound 334],≥ 7.00
25,CC1(F)CCN(c2cc(C(=O)Nc3ccc(NS(=O)(=O)CCO)cc3N3CCC4(CC3)CC4)cc3c2OCC3)C1 (stereo not drawn) [Compound 40],≥ 7.00
26,CN1CCc2cc(NC(=O)c3ccc(S(=O)(=O)NCCO)cc3N3CCC4(CC3)CC4)nc(N3CCC(C)(F)C3)c21 (stereo not drawn) [Compound 344],≥ 7.00
27,C[C@H](CO)NS(=O)(=O)c1ccc(C(=O)Nc2cc3c(c(N4CCC(F)(F)CC4)n2)OCC3)c(N2CCC3(CC2)CC3)c1 [Compound 94],≥ 7.00
28,O=C(Nc1ccc(S(=O)(=O)NCCO)cc1N1CCC2(CC1)CC2)c1cc(N2CCOCC2)c2occc2c1 [Compound 188],≥ 7.00

# Results, then the compound that gave them:
row,pIC50,Structure (SMILES)
1,≥ 7.00,O=C(Nc1cc2c(c(N3CCC4(CC4)C3)c1)OCC2)c1ccc(NS(=O)(=O)CCO)cc1N1CCC2(CC1)CC2 [Compound 6]
2,≥ 7.00,O=C(Nc1cc2c(c(N3CCC4(CC4)C3)n1)OCC2)c1ccc(NS(=O)(=O)CCO)cc1N1CCC2(CC1)CC2 [Compound 70]
3,≥ 7.00,C[C@H]1CN(c2nc(NC(=O)c3ccc(NS(=O)(=O)CCO)cc3N3CCC4(CC3)CC4)cc3c2OCC3)CCO1 [Compound 67]
4,≥ 7.00,Cn1ccc2cc(NC(=O)c3ccc(NS(=O)(=O)CCO)cc3N3CCC4(CC3)CC4)cc(N3CCC(F)(F)CC3)c21 [Compound 385]
5,≥ 7.00,C[C@@H]1CN(c2nc(NC(=O)c3ccc(NS(=O)(=O)[C@H](C)CO)cc3N3CCC4(CC3)CC4)cc3c2N(C)CC3)CCO1 [Compound 336]
6,≥ 7.00,CN1CCc2cc(NC(=O)c3ccc(NS(=O)(=O)CCO)cc3N3CCC4(CC3)CC4)nc(N3CC(F)(F)C3)c21 [Compound 324]
7,≥ 7.00,CC(C)(CO)Nc1nc(C(=O)Nc2ccc(NS(=O)(=O)CCO)cc2N2CCC3(CC2)CC3)cc2ccoc12 [Compound 235]
8,≥ 7.00,C[C@@H]1CN(c2cc(NC(=O)c3ccc(NS(=O)(=O)CCO)cc3N3CCC4(CC3)CC4)cc3ccn(C)c23)CCO1 [Compound 386]
9,≥ 7.00,C[C@H](CO)NS(=O)(=O)c1ccc(C(=O)Nc2cc3c(c(N4CCO[C@H](C)C4)n2)OCC3)c(N2CCC3(CC2)CC3)c1 [Compound 96]
10,≥ 7.00,Cn1ccc2cc(NC(=O)c3ccc(NS(=O)(=O)CCO)cc3N3CCC4(CC3)CC4)nc(N3CC(F)(F)C3)c21 [Compound 452]
11,≥ 7.00,C[C@H]1CN(c2cc(C(=O)Nc3ccc(S(=O)(=O)NCCO)cc3N3CCC4(CC3)CC4)cc3ccoc23)CCO1 [Compound 179]
12,≥ 7.00,CC(C)(CO)Nc1cc(C(=O)Nc2ccc(NS(=O)(=O)CCO)cc2N2CCC3(CC2)CC3)cc2ccoc12 [Compound 171]
13,≥ 7.00,C[C@@H]1CN(c2nc(NC(=O)c3ccc(NS(=O)(=O)[C@@H](C)CO)cc3N3CCC4(CC3)CC4)cc3c2OCC3)CCO1 [Compound 79]
14,≥ 7.00,O=C(Nc1cc2ncoc2c(N2CCC(F)(F)CC2)n1)c1ccc(NS(=O)(=O)CCO)cc1N1CCC2(CC1)CC2 [Compound 514]
15,≥ 7.00,C[C@@H]1CN(c2nc(C(=O)Nc3ccc(NS(=O)(=O)[C@@H](C)CO)cc3N3CCC4(CC3)CC4)cc3ccoc23)CCO1 [Compound 239]
16,≥ 7.00,O=C(Nc1ccc(NS(=O)(=O)CCO)cc1N1CCC2(CC1)CC2)c1cc2ccoc2c(N2CCOCC2)n1 [Compound 236]

row,pIC50,Structure (SMILES)
1,≥ 7.00,C[C@@H]1CN(c2cc(C(=O)Nc3ccc(S(=O)(=O)N[C@@H](C)CO)cc3N3CCC4(CC3)CC4)cc3ccoc23)CCO1 [Compound 191]
2,≥ 7.00,O=C(Nc1cc2ocnc2c(N2CCC(F)(F)CC2)n1)c1ccc(NS(=O)(=O)CCO)cc1N1CCC2(CC1)CC2 [Compound 518]
3,≥ 7.00,C[C@@H]1CN(c2cc(C(=O)Nc3ccc(NS(=O)(=O)CCO)cc3N3CCC4(CC3)CC4)cc3c2OCC3)CCO1 [Compound 34]
4,≥ 7.00,C[C@H]1CN(c2cc(NC(=O)c3ccc(NS(=O)(=O)CCO)cc3N3CCC4(CC3)CC4)cc3c2N(C)CC3)CCO1 [Compound 259]
5,≥ 7.00,C[C@@H]1CN(c2nc(NC(=O)c3ccc(NS(=O)(=O)[C@H](C)CO)cc3N3CCC4(CC3)CC4)cc3ccn(C)c23)CCO1 [Compound 464]
6,≥ 7.00,C[C@@H]1CN(c2nc(C(=O)Nc3ccc(NS(=O)(=O)CCO)cc3N3CCC4(CC3)CC4)cc3c2OCC3)CCO1 [Compound 98]
7,≥ 7.00,C[C@H]1CN(c2nc(NC(=O)c3ccc(NS(=O)(=O)CCO)cc3N3CCC4(CC3)CC4)cc3ccoc23)CCO1 [Compound 195]
8,≥ 7.00,Cn1ccc2cc(NC(=O)c3ccc(NS(=O)(=O)CCO)cc3N3CCC4(CC3)CC4)nc(N3CCC(F)(F)CC3)c21 [Compound 449]
9,≥ 7.00,O=C(Nc1cc(N2CC3CC3C2)c2occc2c1)c1ccc(S(=O)(=O)NCCO)cc1N1CCC2(CC1)CC2 (stereo not drawn) [Compound 154]
10,≥ 7.00,O=C(Nc1ccc(NS(=O)(=O)CCO)cc1N1CCC2(CC1)CC2)c1cc2ccoc2c(N2CC(F)(F)C2)n1 [Compound 228]
11,≥ 7.00,O=C(Nc1cc2ccoc2c(N2CC3CC3C2)n1)c1ccc(NS(=O)(=O)CCO)cc1N1CCC2(CC1)CC2 (stereo not drawn) [Compound 202]
12,≥ 7.00,O=C(Nc1ccc(NS(=O)(=O)CCO)cc1N1CCC2(CC1)CC2)c1cc2ccoc2c(N2CCC3(CC3)C2)n1 [Compound 230]
13,≥ 7.00,C[C@@H]1CN(c2cc(NC(=O)c3ccc(S(=O)(=O)N[C@@H](C)CO)cc3N3CCC4(CC3)CC4)cc3ccoc23)CCO1 [Compound 159]
14,≥ 7.00,C[C@@H]1CN(c2nc(NC(=O)c3ccc(S(=O)(=O)NCCO)cc3N3CCC4(CC3)CC4)cc3c2N(C)CC3)CCO1 [Compound 338]
15,≥ 7.00,CN1CCc2cc(NC(=O)c3ccc(NS(=O)(=O)CCO)cc3N3CCC4(CC3)CC4)cc(N3CCC(F)CC3)c21 [Compound 265]
